Experiments:
Full length Akt2 = biological target: T1, Full length Akt2 (Homo sapiens, UniProt P31751); experiment: In vitro Akt kinase enzymatic assay (HTRF), Akt2; assay type: biochemical; conditions: 0.6 nM Akt2, substrate solution with 5 mM ATP, 25° C. 1 hr
T1 construct: Full length Akt1 (cat #P2999), Akt2 (cat #PV3184); purchased PerkinElmer PV3184
Procedure, shortened: (§1)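 Full-length enzyme (0.4 nM Akt1 or 0.6 nM Akt2/Akt3 in the enzyme solution) was combined with a substrate solution of 0.1 μM ULight-Crosstide plus 5 mM ATP in pH 7.8 HEPES/MgCl2/DTT/Tween20 buffer and reacted 1 hr at 25° C. The EDTA stop contained Eu anti-phospho-Crosstide; IC50 was fitted from 11-point HTRF inhibition curves.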

Full length PKA = biological target: T2, Full length PKA (Homo sapiens, UniProt P17612); experiment: PKA in vitro enzymatic assay (HTRF); assay type: biochemical; conditions: 0.035 nM enzyme solution, substrate solution with 5 mM ATP, 25° C. 1 hr
T2 construct: Full length PKA (cat #P2912); purchased Invitrogen P2912
Procedure, shortened: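 IC50 came from curve fitting of percent inhibition across an 11-point, 3-fold compound series, with HTRF read after EDTA quench and Tb-labelled p-S133 antibody detection. Enzyme (0.035 nM solution) and substrate (0.1 μM fluorescein-CREBtide solution containing 5 mM ATP) reacted for 1 h at 25°C. The buffer was HEPES 50 mM pH 7.8 with 10 mM MgCl2, 5 mM DTT and 0.005% Tween20.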

[1] = tested on: LNCaP cells (human prostate tumor cell line); experiment: Akt LNCaP proliferation assay (MTS); assay type: cell-based; conditions: 48 hours
Procedure: LNCaP cells (human prostate tumor cell line) were plated in 96 well plates (COSTAR, Corning, N.Y.) in 50 μL at 10,000 cells/well in RPMI (Media Tech, Manassas, Va.), 2% fetal bovine serum (Hyclone/Thermo, Logan, Utah) and incubated overnight at 37° C., 5% CO2. […] of compound solution were added at final concentrations of 1000 nM to 0.5 nM in 3 fold dilutions for IC50 determination and plates further incubated for 48 hours. 100 μL of Cell Titer 96® Aqueous reagent, from an MTS colorimetric method for determining the number of viable cells in proliferation (Cell titer 96, Promega, Madison, Wis.) was added for 2 hours at 37° C., 5% CO2. Each plate was mixed well and read on a SpectroMax M5 automated plate reader (Molecular Devices, Sunnyvale Calif.). The ability of the compound to inhibit proliferation was reported as the inhibitor concentration required for 50% inhibition (IC50 values) of total cell proliferation. See Table 8 for data related to compounds of the examples.

Full length Akt1 = biological target: T3, Full length Akt1 (Homo sapiens, UniProt P31749); experiment: In vitro Akt kinase enzymatic assay (HTRF), Akt1; assay type: biochemical; conditions: 0.4 nM Akt1, substrate solution with 5 mM ATP, 25° C. 1 hr
T3 construct: Full length Akt1 (cat #P2999); purchased PerkinElmer P2999
T3 sequence (P31749 whole entry): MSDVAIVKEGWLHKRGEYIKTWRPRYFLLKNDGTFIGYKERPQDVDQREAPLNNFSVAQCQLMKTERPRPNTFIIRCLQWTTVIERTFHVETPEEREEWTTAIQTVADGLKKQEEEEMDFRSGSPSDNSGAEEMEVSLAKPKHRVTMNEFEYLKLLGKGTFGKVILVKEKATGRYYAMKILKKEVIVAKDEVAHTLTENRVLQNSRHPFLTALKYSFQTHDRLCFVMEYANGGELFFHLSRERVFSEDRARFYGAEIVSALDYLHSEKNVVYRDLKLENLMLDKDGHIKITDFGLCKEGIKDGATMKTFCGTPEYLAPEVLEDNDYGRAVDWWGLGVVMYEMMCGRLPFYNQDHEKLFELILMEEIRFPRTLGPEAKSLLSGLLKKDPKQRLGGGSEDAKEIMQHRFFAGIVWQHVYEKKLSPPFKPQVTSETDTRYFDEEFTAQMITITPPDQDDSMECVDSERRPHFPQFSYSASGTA
Procedure, shortened: as §1

Full length Akt3 = biological target: T4, Full length Akt3 (Homo sapiens, UniProt Q9Y243); experiment: In vitro Akt kinase enzymatic assay (HTRF), Akt3; assay type: biochemical; conditions: 0.6 nM Akt3, substrate solution with 5 mM ATP, 25° C. 1 hr
T4 construct: Full length Akt1 (cat #P2999), Akt2 (cat #PV3184), Akt3 (cat #PV3185); purchased PerkinElmer PV3185
T4 sequence (Q9Y243 whole entry): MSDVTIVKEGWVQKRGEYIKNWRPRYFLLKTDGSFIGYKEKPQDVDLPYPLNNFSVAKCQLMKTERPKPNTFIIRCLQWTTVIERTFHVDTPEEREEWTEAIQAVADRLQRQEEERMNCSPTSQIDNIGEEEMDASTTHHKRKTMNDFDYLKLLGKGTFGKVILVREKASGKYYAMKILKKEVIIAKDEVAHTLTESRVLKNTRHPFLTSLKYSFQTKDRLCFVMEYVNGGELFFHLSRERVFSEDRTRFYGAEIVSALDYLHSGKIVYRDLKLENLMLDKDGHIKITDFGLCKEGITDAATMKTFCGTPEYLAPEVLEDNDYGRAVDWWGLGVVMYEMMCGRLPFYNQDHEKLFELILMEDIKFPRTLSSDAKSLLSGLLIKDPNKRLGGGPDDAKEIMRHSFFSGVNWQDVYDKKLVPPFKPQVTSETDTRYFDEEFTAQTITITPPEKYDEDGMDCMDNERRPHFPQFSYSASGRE
Procedure, shortened: as §1

[2] = 2% fetal bovine serum, class symbols

T1 sequence (P31751 whole entry): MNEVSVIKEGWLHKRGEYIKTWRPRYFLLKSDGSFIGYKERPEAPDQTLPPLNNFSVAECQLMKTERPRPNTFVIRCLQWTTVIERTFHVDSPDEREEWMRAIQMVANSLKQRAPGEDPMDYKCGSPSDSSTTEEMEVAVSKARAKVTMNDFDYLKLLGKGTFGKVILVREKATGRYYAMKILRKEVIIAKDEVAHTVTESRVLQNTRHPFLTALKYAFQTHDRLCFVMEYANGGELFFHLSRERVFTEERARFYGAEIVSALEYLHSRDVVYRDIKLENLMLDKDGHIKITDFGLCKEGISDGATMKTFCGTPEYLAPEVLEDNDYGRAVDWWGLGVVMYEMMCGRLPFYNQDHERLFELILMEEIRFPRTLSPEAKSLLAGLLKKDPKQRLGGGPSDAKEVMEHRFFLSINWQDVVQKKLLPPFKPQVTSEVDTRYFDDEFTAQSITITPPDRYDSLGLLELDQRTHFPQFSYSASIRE

SMILES	IC50 (Full length Akt2)	IC50 (Full length PKA)	IC50 [1, 2]	IC50 (Full length Akt1)	IC50 (Full length Akt3)	IC50 ([1]; given as a bound, final concentrations 1000 nM to 0.5 nM)
Cn1nccc1-c1ccc2c(c1)CN([C@H](CN)Cc1ccccc1)C2=O [Example 55, 2-[(1S)-2-amino-1-benzyl-ethyl]-5-(1-methyl-1H-pyrazol-5-yl)isoindolin-1-one]	< 500 nM	> 5000 nM	< 500 nM	< 500 nM	< 500 nM	–
Cn1ncc(Cl)c1-c1ccc2c(c1)CN([C@H](CN)Cc1ccccc1)C2=O [Example 56, 2-[(1S)-2-amino-1-benzyl-ethyl]-5-(4-chloro-1-methyl-1H-pyrazol-5-yl)isoindolin-1-one]	< 500 nM	500 to 5000 nM	< 500 nM	< 500 nM	< 500 nM	–
Cn1ncc(Br)c1-c1ccc2c(c1)CN([C@H](CN)Cc1ccccc1)C2=O [Example 57, 2-[(1S)-2-amino-1-benzyl-ethyl]-5-(4-bromo-1-methyl-1H-pyrazol-5-yl)isoindolin-1-one]	< 500 nM	> 5000 nM	< 500 nM	< 500 nM	< 500 nM	–
CC(C)OCc1cnn(C)c1-c1ccc2c(c1)CN([C@H](CN)Cc1ccccc1)C2=O [Example 58, 2-[(1S)-2-amino-1-benzyl-ethyl]-5-[4-(2-propoxymethyl)-1-methyl-1H-pyrazol-5-yl]isoindolin-1-one]	< 500 nM	> 5000 nM	< 500 nM	< 500 nM	< 500 nM	–
Cn1ncc(Cl)c1-c1ccc2c(c1)CN([C@H](CN)Cc1cccc(C#N)c1)C2=O [Example 62, 3-{(2S)-3-amino-2-[5-(4-chloro-1-methyl-1H-pyrazol-5-yl)-1-oxo-1,3-dihydro-2H-isoindol-2-yl]propyl}benzonitrile]	< 500 nM	> 5000 nM	< 500 nM	< 500 nM	< 500 nM	–
Cn1ncc(Cl)c1-c1ccc2c(c1)CN([C@H](CN)Cc1cccnc1)C2=O [Example 65, 2-[(1S)-2-amino-1-(pyridin-3-ylmethyl)ethyl]-5-(4-chloro-1-methyl-1H-pyrazol-5-yl)isoindolin-1-one]	< 500 nM	> 5000 nM	< 500 nM	< 500 nM	< 500 nM	–
Cn1ncc(Cl)c1-c1ccc2c(c1)CN([C@H](CN)Cc1ccccn1)C2=O [Example 66, 2-[(1S)-2-amino-1-(pyridin-2-ylmethyl)ethyl]-5-(4-chloro-1-methyl-1H-pyrazol-5-yl)isoindolin-1-one]	< 500 nM	500 to 5000 nM	< 500 nM	< 500 nM	< 500 nM	–
Cn1ncc(Cl)c1-c1ccc2c(c1)CN([C@H](CN)Cc1cccs1)C2=O [Example 67, 2-[(1S)-2-amino-1-(2-thienylmethyl)ethyl]-5-(4-chloro-1-methyl-1H-pyrazol-5-yl)isoindolin-1-one]	< 500 nM	500 to 5000 nM	< 500 nM	< 500 nM	< 500 nM	–
Cn1ncc(Cl)c1-c1ccc2c(c1)CN([C@H](CN)Cc1ccsc1)C2=O [Example 68, 2-[(1S)-2-amino-1-(3-thienylmethyl)ethyl]-5-(4-chloro-1-methyl-1H-pyrazol-5-yl)isoindolin-1-one]	< 500 nM	500 to 5000 nM	< 500 nM	< 500 nM	< 500 nM	–
Cn1ncc(Cl)c1-c1ccc2c(c1)CN([C@H](CN)Cc1cscn1)C2=O [Example 69, 2-[(1S)-2-amino-1-(1,3-thiazol-4-ylmethyl)ethyl]-5-(4-chloro-1-methyl-1H-pyrazol-5-yl)isoindolin-1-one]	500 to 5000 nM	500 to 5000 nM	> 5000 nM	< 500 nM	500 to 5000 nM	–
Cn1ncc(Cl)c1-c1ccc2c(c1)CN([C@H](CN)Cc1cccc(-c3ccncc3)c1)C2=O [Example 72, 2-[(1S)-2-amino-1-(3-pyridin-4-ylbenzyl)ethyl]-5-(4-chloro-1-methyl-1H-pyrazol-5-yl)isoindolin-1-one]	> 5000 nM	> 5000 nM	–	> 5000 nM	> 5000 nM	> 1000 nM

Reference: US8895571B2, “Isoindolinone and pyrrolopyridinone derivatives as Akt inhibitors” (Incyte Corporation, priority 2011, dated 2014)
